In ChEMBL document CHEMBL5715954, “Silencing c-Myc translation as a therapeutic strategy through targeting PI3Kδ and CK1ε in hematological malignancies” (Blood, 2017):

What was measured:
Set-up in all cases: scale not given: the % may be the effect or the level left
[1] = molecular target: Serine/threonine-protein kinase/endoribonuclease IRE2 (Homo sapiens) (UniProt Q76MJ5); test: Inhibition of human ERN2/IRE2 assessed as enzyme activity at 1 uM using myelin basic protein as substrate preincubated for 20 mins followed by [gamma-33P]-ATP addition and measured after 120 mins by radiometric Hot-SpotSM Kinase assay relative to control
[2] = molecular target: Protein-tyrosine kinase 2-beta (Homo sapiens) (UniProt Q14289); test: Inhibition of human PYK2 assessed as enzyme activity at 1 uM using poly[Glu:Tyr] (4:1) as substrate preincubated for 20 mins followed by [gamma-33P]-ATP addition and measured after 120 mins by radiometric Hot-SpotSM Kinase assay relative to control
Chain of Protein-tyrosine kinase 2-beta (Homo sapiens) (Q14289 whole entry, looked up): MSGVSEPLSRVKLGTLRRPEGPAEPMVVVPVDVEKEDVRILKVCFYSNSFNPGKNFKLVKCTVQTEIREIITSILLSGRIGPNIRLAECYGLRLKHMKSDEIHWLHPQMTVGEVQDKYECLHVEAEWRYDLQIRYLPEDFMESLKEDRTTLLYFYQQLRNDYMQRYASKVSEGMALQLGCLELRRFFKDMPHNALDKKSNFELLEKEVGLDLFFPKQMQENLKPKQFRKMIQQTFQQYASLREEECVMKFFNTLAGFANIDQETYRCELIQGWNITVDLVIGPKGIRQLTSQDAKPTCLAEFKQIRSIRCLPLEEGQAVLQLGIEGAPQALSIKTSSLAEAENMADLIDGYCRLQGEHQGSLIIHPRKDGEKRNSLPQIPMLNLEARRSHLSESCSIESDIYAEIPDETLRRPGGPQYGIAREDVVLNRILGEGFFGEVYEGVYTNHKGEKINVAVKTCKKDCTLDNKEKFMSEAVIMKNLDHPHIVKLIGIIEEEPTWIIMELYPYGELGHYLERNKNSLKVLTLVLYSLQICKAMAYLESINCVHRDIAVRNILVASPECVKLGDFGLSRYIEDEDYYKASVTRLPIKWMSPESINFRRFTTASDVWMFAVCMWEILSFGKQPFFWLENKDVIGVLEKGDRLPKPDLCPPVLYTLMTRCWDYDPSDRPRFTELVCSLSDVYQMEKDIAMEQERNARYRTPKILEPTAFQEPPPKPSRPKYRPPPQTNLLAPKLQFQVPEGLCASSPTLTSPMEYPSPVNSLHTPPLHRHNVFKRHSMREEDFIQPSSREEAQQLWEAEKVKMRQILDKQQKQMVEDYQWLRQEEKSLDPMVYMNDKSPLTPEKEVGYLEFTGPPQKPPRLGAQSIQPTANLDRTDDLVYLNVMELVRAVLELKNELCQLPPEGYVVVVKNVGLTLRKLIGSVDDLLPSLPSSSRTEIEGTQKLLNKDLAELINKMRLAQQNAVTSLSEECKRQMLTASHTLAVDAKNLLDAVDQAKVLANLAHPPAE

[3] = molecular target: Mitogen-activated protein kinase 1 (Homo sapiens) (UniProt P28482); test: Inhibition of human ERK2 assessed as enzyme activity at 1 uM using myelin basic protein as substrate preincubated for 20 mins followed by [gamma-33P]-ATP addition and measured after 120 mins by radiometric Hot-SpotSM Kinase assay relative to control
Chain of Mitogen-activated protein kinase 1 (Homo sapiens) (P28482 whole entry): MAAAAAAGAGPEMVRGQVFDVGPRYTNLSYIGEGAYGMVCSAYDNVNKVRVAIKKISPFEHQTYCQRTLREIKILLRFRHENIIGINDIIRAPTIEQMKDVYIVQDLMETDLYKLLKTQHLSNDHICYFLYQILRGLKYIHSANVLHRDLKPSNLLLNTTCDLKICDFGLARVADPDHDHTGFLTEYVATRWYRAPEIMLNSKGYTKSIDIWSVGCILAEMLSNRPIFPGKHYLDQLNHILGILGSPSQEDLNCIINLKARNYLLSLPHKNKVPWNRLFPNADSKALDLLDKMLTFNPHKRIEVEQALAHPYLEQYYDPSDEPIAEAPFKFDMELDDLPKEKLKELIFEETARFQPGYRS

[4] = molecular target: RAC-gamma serine/threonine-protein kinase (Homo sapiens) (UniProt Q9Y243); test: Inhibition of human AKT3 assessed as enzyme activity at 1 uM using KGSGSGRPRTSSFAEG as substrate preincubated for 20 mins followed by [gamma-33P]-ATP addition and measured after 120 mins by radiometric Hot-SpotSM Kinase assay relative to control
[5] = molecular target: Tyrosine-protein kinase Blk (Homo sapiens) (UniProt P51451); test: Inhibition of human BLK assessed as enzyme activity at 1 uM using poly[Glu:Tyr] (4:1) as substrate preincubated for 20 mins followed by [gamma-33P]-ATP addition and measured after 120 mins by radiometric Hot-SpotSM Kinase assay relative to control
Chain of Tyrosine-protein kinase Blk (Homo sapiens) (P51451 2-505 limits assumed): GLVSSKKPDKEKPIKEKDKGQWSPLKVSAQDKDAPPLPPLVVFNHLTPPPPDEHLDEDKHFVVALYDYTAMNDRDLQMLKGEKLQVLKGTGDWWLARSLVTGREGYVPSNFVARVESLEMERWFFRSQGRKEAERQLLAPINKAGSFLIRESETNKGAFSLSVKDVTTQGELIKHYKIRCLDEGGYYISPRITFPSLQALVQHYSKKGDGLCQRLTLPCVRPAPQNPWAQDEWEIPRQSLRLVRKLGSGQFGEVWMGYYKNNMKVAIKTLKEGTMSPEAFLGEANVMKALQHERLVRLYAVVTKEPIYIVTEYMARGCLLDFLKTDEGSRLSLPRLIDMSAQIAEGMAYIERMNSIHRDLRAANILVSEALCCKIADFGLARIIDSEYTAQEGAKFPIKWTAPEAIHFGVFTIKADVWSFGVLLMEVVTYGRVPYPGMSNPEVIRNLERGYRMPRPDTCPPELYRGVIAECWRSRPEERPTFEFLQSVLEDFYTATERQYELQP

[6] = molecular target: Tyrosine-protein kinase ABL2 (Homo sapiens) (UniProt P42684); test: Inhibition of human ABL2 assessed as enzyme activity at 1 uM using EAIYAAPFAKKK as substrate preincubated for 20 mins followed by [gamma-33P]-ATP addition and measured after 120 mins by radiometric Hot-SpotSM Kinase assay relative to control
Chain of Tyrosine-protein kinase ABL2 (Homo sapiens) (P42684 whole entry): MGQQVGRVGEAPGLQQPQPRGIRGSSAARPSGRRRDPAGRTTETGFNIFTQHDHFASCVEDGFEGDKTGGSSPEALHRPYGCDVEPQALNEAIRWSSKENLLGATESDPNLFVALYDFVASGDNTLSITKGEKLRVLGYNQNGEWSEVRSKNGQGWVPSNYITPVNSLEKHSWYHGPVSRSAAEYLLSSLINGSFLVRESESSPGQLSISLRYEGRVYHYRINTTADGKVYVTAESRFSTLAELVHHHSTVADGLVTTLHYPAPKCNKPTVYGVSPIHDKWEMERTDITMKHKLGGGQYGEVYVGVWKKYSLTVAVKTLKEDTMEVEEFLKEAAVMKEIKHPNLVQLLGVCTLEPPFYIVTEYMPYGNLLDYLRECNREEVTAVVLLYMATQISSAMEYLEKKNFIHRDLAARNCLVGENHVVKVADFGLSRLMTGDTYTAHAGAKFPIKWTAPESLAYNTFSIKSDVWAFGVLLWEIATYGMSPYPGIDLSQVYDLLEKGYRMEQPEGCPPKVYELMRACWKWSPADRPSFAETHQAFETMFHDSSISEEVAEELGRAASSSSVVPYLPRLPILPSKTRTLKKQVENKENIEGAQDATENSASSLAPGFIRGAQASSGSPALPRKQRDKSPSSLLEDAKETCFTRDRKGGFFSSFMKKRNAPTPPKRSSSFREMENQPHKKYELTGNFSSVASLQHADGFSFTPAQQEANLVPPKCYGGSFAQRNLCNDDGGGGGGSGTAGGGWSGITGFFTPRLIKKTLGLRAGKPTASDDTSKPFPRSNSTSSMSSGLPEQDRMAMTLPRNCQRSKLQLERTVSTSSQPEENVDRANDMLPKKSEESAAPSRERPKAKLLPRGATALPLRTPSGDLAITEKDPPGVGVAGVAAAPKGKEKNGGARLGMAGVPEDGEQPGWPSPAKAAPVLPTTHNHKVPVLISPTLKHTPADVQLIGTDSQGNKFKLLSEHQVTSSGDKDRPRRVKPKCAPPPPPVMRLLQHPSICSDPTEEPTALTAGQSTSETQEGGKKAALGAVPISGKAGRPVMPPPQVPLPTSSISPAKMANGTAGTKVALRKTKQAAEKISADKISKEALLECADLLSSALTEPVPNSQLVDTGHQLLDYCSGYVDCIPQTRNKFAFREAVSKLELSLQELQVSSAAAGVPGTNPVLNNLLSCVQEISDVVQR

[7] = molecular target: Epidermal growth factor receptor (Homo sapiens) (UniProt P00533); test: Inhibition of human EGFR assessed as enzyme activity at 1 uM using poly[Glu:Tyr] (4:1) as substrate preincubated for 20 mins followed by [gamma-33P]-ATP addition and measured after 120 mins by radiometric Hot-SpotSM Kinase assay relative to control
Chain of Epidermal growth factor receptor (Homo sapiens) (P00533 whole entry): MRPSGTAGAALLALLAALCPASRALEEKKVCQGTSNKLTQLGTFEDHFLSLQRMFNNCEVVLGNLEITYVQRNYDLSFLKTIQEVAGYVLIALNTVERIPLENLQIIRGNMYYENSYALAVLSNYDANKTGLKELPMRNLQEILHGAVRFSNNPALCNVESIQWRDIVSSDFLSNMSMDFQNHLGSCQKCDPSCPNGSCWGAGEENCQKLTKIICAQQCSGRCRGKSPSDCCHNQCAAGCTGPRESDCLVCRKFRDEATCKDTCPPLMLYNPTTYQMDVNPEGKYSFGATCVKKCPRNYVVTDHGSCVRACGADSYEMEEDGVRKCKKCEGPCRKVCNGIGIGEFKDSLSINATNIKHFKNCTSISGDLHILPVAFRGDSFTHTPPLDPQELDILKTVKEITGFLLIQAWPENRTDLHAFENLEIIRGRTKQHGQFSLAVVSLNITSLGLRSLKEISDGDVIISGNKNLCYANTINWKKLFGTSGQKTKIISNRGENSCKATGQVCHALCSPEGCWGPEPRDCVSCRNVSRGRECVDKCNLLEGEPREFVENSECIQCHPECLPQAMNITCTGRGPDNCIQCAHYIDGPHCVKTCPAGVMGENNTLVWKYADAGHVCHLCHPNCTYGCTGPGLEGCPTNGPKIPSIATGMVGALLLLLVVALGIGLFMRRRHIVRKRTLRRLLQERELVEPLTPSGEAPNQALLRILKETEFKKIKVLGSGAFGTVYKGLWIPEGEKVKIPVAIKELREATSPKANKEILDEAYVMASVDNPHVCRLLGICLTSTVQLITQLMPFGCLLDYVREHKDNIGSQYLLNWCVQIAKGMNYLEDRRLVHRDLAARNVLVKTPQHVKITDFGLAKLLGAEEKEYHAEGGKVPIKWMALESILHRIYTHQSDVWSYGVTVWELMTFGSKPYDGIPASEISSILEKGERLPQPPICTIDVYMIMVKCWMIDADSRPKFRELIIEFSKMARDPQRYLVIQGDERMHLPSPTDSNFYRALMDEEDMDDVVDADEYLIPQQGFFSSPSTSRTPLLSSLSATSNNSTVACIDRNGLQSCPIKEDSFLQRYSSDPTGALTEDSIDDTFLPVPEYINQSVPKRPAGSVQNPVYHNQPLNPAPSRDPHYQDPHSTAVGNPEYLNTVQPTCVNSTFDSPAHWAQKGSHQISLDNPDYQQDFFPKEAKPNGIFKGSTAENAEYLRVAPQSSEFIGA

[8] = molecular target: MAP/microtubule affinity-regulating kinase 3 (Homo sapiens) (UniProt P27448); test: Inhibition of human MARK3 assessed as enzyme activity at 1 uM using KKKVSRSGLYRSPSMPENLNRPR as substrate preincubated for 20 mins followed by [gamma-33P]-ATP addition and measured after 120 mins by radiometric Hot-SpotSM Kinase assay relative to control
Chain of MAP/microtubule affinity-regulating kinase 3 (Homo sapiens) (P27448 whole entry, looked up): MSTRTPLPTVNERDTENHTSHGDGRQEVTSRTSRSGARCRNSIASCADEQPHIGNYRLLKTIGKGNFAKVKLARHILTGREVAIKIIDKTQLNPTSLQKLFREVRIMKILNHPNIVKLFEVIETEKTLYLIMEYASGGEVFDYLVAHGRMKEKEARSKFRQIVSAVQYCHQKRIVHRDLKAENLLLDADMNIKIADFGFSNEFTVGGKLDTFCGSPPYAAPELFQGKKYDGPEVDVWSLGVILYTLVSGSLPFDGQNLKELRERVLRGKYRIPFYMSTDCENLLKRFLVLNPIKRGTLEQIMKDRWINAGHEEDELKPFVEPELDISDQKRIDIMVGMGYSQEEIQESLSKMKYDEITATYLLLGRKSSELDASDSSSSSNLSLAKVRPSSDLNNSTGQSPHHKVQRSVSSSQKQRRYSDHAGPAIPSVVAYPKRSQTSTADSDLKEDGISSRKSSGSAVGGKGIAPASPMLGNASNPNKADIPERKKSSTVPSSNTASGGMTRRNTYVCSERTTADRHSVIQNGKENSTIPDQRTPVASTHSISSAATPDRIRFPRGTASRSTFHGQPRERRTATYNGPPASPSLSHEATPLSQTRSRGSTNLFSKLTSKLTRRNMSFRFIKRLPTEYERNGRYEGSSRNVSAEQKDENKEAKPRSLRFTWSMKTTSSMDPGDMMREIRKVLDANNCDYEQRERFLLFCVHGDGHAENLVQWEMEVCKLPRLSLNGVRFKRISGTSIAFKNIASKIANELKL

[9] = molecular target: T1, Serine/threonine-protein kinase ULK2 (Homo sapiens) (UniProt Q8IYT8); test: Inhibition of human ULK2 assessed as enzyme activity at 1 uM using myelin basic protein as substrate preincubated for 20 mins followed by [gamma-33P]-ATP addition and measured after 120 mins by radiometric Hot-SpotSM Kinase assay relative to control
T1 sequence (whole entry): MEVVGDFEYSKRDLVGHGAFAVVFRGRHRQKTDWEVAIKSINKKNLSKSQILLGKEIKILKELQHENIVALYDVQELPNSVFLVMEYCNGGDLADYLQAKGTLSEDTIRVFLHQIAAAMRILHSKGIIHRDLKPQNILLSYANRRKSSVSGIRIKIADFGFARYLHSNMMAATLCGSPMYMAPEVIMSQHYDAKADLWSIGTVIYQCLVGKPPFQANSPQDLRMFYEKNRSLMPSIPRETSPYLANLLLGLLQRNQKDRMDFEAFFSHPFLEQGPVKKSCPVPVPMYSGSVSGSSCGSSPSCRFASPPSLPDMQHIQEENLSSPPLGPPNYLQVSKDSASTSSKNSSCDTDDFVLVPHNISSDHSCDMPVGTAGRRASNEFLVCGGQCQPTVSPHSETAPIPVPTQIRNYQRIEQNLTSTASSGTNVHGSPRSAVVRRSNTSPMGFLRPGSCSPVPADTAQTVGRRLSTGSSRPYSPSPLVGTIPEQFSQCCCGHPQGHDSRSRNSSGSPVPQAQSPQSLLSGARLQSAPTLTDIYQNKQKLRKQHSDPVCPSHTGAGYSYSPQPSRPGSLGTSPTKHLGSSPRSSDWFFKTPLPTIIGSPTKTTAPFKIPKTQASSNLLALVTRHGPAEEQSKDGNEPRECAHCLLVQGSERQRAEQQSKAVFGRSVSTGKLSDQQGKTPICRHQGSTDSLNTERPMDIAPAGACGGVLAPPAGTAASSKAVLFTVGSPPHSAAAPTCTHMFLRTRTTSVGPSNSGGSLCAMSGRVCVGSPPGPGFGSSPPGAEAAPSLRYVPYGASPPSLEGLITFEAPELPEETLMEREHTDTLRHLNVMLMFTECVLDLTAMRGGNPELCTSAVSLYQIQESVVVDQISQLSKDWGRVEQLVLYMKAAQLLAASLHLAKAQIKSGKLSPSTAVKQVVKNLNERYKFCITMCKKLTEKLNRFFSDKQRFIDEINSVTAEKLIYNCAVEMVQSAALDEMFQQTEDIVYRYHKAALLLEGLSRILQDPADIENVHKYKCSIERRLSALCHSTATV

[10] = molecular target: T2, cGMP-dependent protein kinase 1 (Homo sapiens) (UniProt Q13976); test: Inhibition of human PKG1a assessed as enzyme activity at 1 uM using LRRASLG as substrate preincubated for 20 mins followed by [gamma-33P]-ATP addition and measured after 120 mins by radiometric Hot-SpotSM Kinase assay relative to control
T2 sequence (whole entry): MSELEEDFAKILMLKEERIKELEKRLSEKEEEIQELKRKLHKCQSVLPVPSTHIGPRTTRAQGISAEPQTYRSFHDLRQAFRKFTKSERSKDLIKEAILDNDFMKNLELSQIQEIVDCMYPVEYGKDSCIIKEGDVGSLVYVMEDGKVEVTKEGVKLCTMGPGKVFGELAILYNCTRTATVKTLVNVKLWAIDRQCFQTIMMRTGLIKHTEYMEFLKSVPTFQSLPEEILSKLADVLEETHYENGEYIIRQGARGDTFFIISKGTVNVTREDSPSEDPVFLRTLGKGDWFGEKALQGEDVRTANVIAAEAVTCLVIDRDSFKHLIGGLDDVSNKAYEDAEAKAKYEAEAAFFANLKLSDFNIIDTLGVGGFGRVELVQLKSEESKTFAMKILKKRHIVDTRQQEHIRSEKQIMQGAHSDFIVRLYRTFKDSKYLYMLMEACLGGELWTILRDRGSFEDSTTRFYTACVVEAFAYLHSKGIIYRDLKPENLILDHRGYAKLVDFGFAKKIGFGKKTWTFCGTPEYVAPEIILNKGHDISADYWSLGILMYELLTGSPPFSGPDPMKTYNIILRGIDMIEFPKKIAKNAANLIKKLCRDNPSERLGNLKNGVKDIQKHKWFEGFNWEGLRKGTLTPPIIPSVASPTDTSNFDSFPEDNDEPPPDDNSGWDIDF

Row | SMILES | Activity [1] | Activity [2] | Activity [3] | Activity [4] | Activity [5] | Activity [6] | Activity [7] | Activity [8] | Activity [9] | Activity [10]
1 | C[C@H](Nc1ncnc2nc[nH]c12)c1cc2cccc(Cl)c2c(=O)n1-c1ccccc1 | 96.5% | 99.5% | 97.2% | 99.8% | 96.9% | 91.7% | 99.1% | 137% | 98.4% | 109%
2 | CC[C@H](Nc1ncnc2[nH]cnc12)c1nc2cccc(F)c2c(=O)n1-c1ccccc1 | 100% | 101% | 93.6% | 102% | 97.6% | 89.1% | 95.4% | 130% | 89.3% | 105%
3 | CC(C)Oc1ccc(-c2nn([C@@H](C)c3oc4ccc(F)cc4c(=O)c3-c3cccc(F)c3)c3ncnc(N)c23)cc1F [UMBRALISIB] | 98.3% | 102% | 94.2% | 100% | 99.7% | 90.6% | 97.7% | 100% | 101% | 105%
